Test results taken from patent US4707481A, “Pyridazinones, their preparation and use, and bronchospasmolytic medicaments containing pyridazinones” (BYK Gulden Lomberg Chemische Fabrik GmbH, priority 1983, dated 1987).

Columns and labels:
[1] = tested on: chain of tracheal rings of guinea pigs; experiment: relaxing action on chain of tracheal rings in vitro (bronchospasmolytic action); parameters: species or system guinea pig; details: for EC50: Cavia porcellus, Column A, negative logarithm of EC50 in mol/l, 50% of maximum relaxation by (-)isoprenaline, read-out: -lg[EC50] trachea (converted); for [EC40 pot.] left atrium / [EC50] trachea: Column C, measure of organ-selective activity; for [EC50] theophylline / [EC50] substance: Column D, trachea
Protocol: The relaxing action of the 6-aryl-3[2H]pyridazinones I has been tested in vitro on a chain of tracheal rings (Tr.) of guinea pigs. […] The quotient of [EC40pot. ]left atrium and [ED50 ]trachea serves as a measure of the organ-selective activity.
The bronchospasmolytic action of the compounds on the chain of tracheal rings of the guinea pig was tested in vitro:
Four parallel chains of tracheal rings, each consisting of 6 individual rings, of guinea pigs(.male. and .female., 430-600 g) in an organ bath [5 ml, Krebs-Henseleit solution with added phentolamine (10^-5 mol/l), 37° C., initial tension of the organs 2 g, gassing with carbogen] develop a stable, spontaneous tonic contraction after about 20 to 30 minutes. […] Over a period of 20 to 30 minutes, a complete dose/action curve of the test substance is thus obtained. The particular relaxation is expressed as a percentage fraction of the maximum relaxation which can be achieved by administration of (-)isoprenaline (10^-6 mol/1). The concentration of the test substance which causes 50% of the maximum relaxation which can be achieved, expressed by the negative logarithm of the EC50 mol/l: -lg[EC50 ]is a measure of the bronchodilator activity.

[2] = toxicity studies, mouse p.o.; details: in vivo, po; for LD50 at 168 h: Column F, mouse p.o., 7 days observation, read-out: Approximate LD50
Protocol: The toxicity studies are carried out on female NMRI mice (body weight 23-30 g). The animals (5 animals per dose) receive food and water ad libitum. Various doses of the substances are administered once as a suspension in methocel via a gavage. The period of observation lasts 7 days. The tolerated dose (TD), that is to say the highest dose at which as yet none of the animals die, is determined by observation. The average lethal dose (LD50), that is to say the dose at which 50% of the animals die, is determined from the dose/action curve by means of linear regression.

[3] = tested on: electrically stimulated left atrium of rats; experiment: positive inotropic action on electrically stimulated left atrium in vitro; parameters: species or system rat; details: for EC40: Rattus norvegicus, Column B, negative logarithm of EC40pot in mol/l, 40% increase in contraction force, read-out: -lg[EC40 pot.] left atrium (converted); for [EC40 pot.] theophylline / [EC40 pot.] substance: Column E, left atrium
Protocol: The positive inotropic action was tested in vitro on the electrically stimulated left atrium of rats (l.a.).
The positive inotropic action of the compounds was tested in vitro on the electrically stimulated left atrium of rats.
Isometric contractions (HSE force sensor K-30; Watanabe recorder, Linear Corder Mark 5) of isolated, left atria from rats (.male., 250-300 g) in an organ bath (10 ml, Tyrode nutrient solution, 31° C., gassing with carbogen, initial tension of the organs 0.25 g) under electrical stimulation (HSE stimulator, 7 V, 3 ms, 2 Hz) were recorded. […] The particular increase in the contraction force is expressed in % of the starting value before administration of the substance. The concentration of the test substance which potentiates the contraction force of the atrium by 40% compared with the starting value [EC40pot. mol/l], expressed by the negative logarithm of the [EC40pot mol/l]: -lg[EC40pot ] serves as a measure of the cardiotonic activity.

Row | SMILES | EC50 [1] | [EC40 pot.] left atrium / [EC50] trachea [1] | [EC50] theophylline / [EC50] substance [1] | LD50 at 168 h [2] | EC40 [3] | tolerated dose ([2]; mouse, 10080 min) | [EC40 pot.] theophylline / [EC40 pot.] substance [3]
1 | COc1ccc(-c2ccc(=O)[nH]n2)cc1OCCC(C)C [compound 12] | 0.501 µM | 2000 | 269 | 960 mg/kg | > 1000 µM | – | –
2 | CCCCOc1ccc(-c2ccc(=O)[nH]n2)cc1OC [Serial No. 3, 6-(4-n-butoxy-3-methoxyphenyl)-3[2H]pyridazinone] | 2.51 µM | 2.6 | 53.8 | – | 6.61 µM | > 761 | 63.2
3 | CCOc1cc(-c2ccc(=O)[nH]n2)ccc1OC [compound 8] | 0.339 µM | 3.9 | 398 | 550 mg/kg | 1.32 µM | – | 316
